“Also recorded” adds a separate entry of the source. Counter-ions that a name gives are not always drawn. Like-named read-outs stand apart in the source and are kept apart here.
Legend:
[1] = mouse, in vivo, po
Excerpt: Mice were inoculated with B16F10 tumors as described above. Once the tumor volume reached around 45 mm^3, animals were randomized into various groups with 10 animals in all the groups so that the average tumor volume of each group was similar.
LA1 was combined with a solution containing 5% DMSO, 5% Solutol:ethanol (1:1), 20% Tween20, and 70% N-saline.

[2] = biological target: T1, glucocorticoid receptor (Homo sapiens, UniProt P04150); assay: Glucocorticoid receptor agonist assay
T1 sequence (P04150 1-777): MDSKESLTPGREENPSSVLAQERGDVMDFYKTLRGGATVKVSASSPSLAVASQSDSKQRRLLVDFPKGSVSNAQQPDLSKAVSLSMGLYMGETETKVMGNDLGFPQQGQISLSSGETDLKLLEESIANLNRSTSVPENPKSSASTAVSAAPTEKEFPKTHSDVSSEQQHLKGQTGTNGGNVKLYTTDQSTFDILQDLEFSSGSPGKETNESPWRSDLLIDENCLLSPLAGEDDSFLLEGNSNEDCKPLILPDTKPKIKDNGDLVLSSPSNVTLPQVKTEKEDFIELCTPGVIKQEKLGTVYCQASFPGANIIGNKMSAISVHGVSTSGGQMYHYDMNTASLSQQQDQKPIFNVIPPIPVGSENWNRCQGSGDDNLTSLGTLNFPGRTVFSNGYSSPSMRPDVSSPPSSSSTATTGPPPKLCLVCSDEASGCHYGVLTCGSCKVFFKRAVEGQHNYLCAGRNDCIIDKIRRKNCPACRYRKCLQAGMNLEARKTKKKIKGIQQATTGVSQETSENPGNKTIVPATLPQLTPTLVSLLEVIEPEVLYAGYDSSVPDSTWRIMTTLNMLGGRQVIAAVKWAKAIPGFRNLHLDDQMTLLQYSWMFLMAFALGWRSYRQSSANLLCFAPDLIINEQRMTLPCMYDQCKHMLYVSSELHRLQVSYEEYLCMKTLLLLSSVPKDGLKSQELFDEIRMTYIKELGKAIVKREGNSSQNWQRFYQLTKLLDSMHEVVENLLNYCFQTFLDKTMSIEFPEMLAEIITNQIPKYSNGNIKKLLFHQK

[3] = biological target: adenosine A2A receptor (Homo sapiens, UniProt P29274); assay: Adenosine A2A receptor agonist assay
adenosine A2A receptor, sequence (P29274 whole entry): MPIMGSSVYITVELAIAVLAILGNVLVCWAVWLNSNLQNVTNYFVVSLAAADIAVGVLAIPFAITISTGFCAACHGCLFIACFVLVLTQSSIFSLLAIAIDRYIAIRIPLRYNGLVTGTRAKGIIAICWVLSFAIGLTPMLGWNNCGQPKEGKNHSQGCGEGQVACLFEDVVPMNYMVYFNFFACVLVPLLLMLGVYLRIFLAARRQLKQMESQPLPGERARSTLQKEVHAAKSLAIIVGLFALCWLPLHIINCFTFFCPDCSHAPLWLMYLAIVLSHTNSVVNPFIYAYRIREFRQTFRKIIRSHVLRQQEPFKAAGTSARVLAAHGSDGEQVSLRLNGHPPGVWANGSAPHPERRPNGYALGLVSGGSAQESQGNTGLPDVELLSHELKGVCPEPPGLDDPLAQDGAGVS

[4] = Solubility estimation by aliquot addition and temperature cycling; type: physicochemical; conditions: for solubility: thermodynamic from solid, 20° C., read-out: Approx. solubility
Method: Aliquots of the test solvent were added to an accurately weighed sample (−10 mg) of LA1 at ambient temperature. The aliquot volumes were typically 200-1000 μL. Complete dissolution of the test material was determined by visual inspection. The solubility was estimated from these experiments based on the total solvent used to provide complete dissolution.
First, the samples were heated from 20° C. to within 3° C. of solvent boiling point (or 100° C., whichever was lower) at 0.5° C./minute; then cooled to 20° C. at 0.2° C./minute while stirring at 800 rpm.
From the infrared (IR) transmission data of the sample vials, dissolution and precipitation events were recorded as the point of complete transmission of IR and the onset of turbidity by IR respectively. Selected samples were also agitated on an orbital shaker at 50° C. and visually observed for dissolution.

[5] = mice; cited from earlier work
[6] = in vivo; conditions: C57BL/6, mouse
Method: A mouse melanoma tumor cell line, B16-F10, was used for developing a subcutaneous tumor model. 0.1×10^6 cells were injected subcutaneously in the right flank region of the animal. When the tumors reached ˜45 mm^3 the animals were randomized into various groups, each group with 10 animals, so that the average tumor volume of all the groups was similar. Animals were treated from the day of randomization (Day 1). Tumor dimensions (length and diameter) were measured for all animals three times per week, including the termination day of the study. In addition, throughout the study period, mice were monitored daily for clinical conditions. […] Portions of the blood samples were used for blood analysis and clinical chemistry. Lung, heart, liver, spleen, and kidneys were also collected and histopathological analysis was performed.

[7] = Aqueous solubility by equilibration, HPLC analysis; type: physicochemical; conditions: for Aq solub: water, ambient temperature, slurried 4-5 days, corrected for weight of counter-ion
Method: An aliquot of the UHQ water test solvent (1 mL) was added to an accurately weighed sample of the LA1 salts and agitated at ambient temperature for a period of 4 days. A sample was withdrawn, filtered through a […], and analyzed by HPLC. HPLC was used to determine aqueous equilibrium solubility at ambient temperature. […] Samples were slurried in water for 4-5 days before analysis.

[8] = after slurrying in water 4-5 days

For `O=C(O)c1ccc(-c2ccc(/C=C3\SC(=S)N(Cc4ccccc4)C3=O)o2)cc1` [LA1, (Z)-4-(5-((3-benzyl-4-oxo-2-thioxothiazolidin-5-ylidene)methyl)furan-2-yl)benzoic acid], the “exposure in blood at end of study” value [1] was “below the limit of quantitation”, the “exposure in tumor at end of study” value [1] was “below the limit of quantitation” and the “efficacy in glucocorticoid receptor agonist assay” value [2] was “shown efficacy”. For the same compound, the “efficacy in adenosine A2A receptor agonist assay” value [3] was “shown efficacy”, the dissolution upon heating ([4]; DMF, 73° C.) was 10 mg/mL and the “solubility by aliquot addition, overall” value ([4]; all solvents and solvent mixtures tested) was “insoluble in all solvents tested; also recorded: poor solubility in all solvents tested”. For the same compound, the solubility ([4]; aqueous with cosolvent or surfactant or cyclodextrin, DMF:water (1:1)) was under 10000 µg/mL, the solubility ([4]; organic solvent or mixture, DMF:MeOH (1:1)) was under 10000 µg/mL and the solubility ([4]; organic solvent or mixture, DMF:THF (1:1)) was under 7000 µg/mL. The solubility ([4]; organic solvent or mixture, MeOH:ACN:dioxane (1:1:1)) was under 10000 µg/mL, the solubility ([4]; organic solvent or mixture, MeOH:acetone (1:1)) was under 10000 µg/mL and the solubility ([4]; organic solvent or mixture, THF:Acetone (1:1)) was under 10000 µg/mL. The solubility ([4]; organic solvent or mixture, THF:MeOH (1:1)) was under 10000 µg/mL, the solubility ([4]; organic solvent or mixture, THF) was under 10000 µg/mL and the solubility ([4]; organic solvent or mixture, acetone) was under 10000 µg/mL. It also gave a solubility ([4]; organic solvent or mixture, acetonitrile) of under 10000 µg/mL, a solubility ([4]; organic solvent or mixture, anisole) of under 10000 µg/mL and a solubility ([4]; organic solvent or mixture, dichloromethane) of under 10000 µg/mL. The solubility ([4]; organic solvent or mixture, dimethylformamide) was under 10000 µg/mL, the solubility ([4]; organic solvent or mixture, hexafluoroisopropanol) was under 10000 µg/mL and the solubility ([4]; organic solvent or mixture, methanol) was under 10000 µg/mL. For the same compound, the renal ischemia/reperfusion injury [5] was “reduce renal ischemia/reperfusion injury”, the concentration at 0.5 h ([6]; exposure in blood at end of study) was 383 ± 450 ng/mL and the concentration at 0.5 h ([6]; exposure in tumor at end of study) was 24.7 ± 17.6 ng/mL.

In the case of `O=C(O)c1ccc(-c2ccc(/C=C3\SC(=S)N(Cc4ccccc4)C3=O)o2)cc1` [LA1 choline salt], the Appearance [7, 8] is reported as “Darker red color”, the “Soln pH” value [7, 8] is reported as 8 and the “HPLC purity (%)” value ([7]; after slurrying in water 4-5 days (chemical stability)) is reported as 75.51%. The “Aq solub” value ([7]; listed as choline) was 7.052 mg/mL and the “Aq solub” value ([7]; listed as choline salt) was 7.1 mg/mL.

From patent US10723726B2, “Solid forms of (Z)-4-(5-((3-benzyl-4-oxo-2-thioxothiazolidin-5-ylidene)methyl)furan-2-yl)benzoic acid” (GB006, INC., priority 2015, dated 2020)
